Source: PubChem BioAssay (NCI)
Values joined by “and” are separate entries in the source; they are usually repeats but may differ in a detail not shown here. Equal values may be shown once.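 Following 48 hours of exposure in 96-well plates, responses at five concentrations were used to interpolate endpoints linearly. GI50 marks 50% less growth. TGI denotes the concentration required for complete inhibition of growth.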

Experiments:
Test in all cases: growth of human tumour cells (NCI), 48 h
[1] = test system: MDA-MB-231 breast
[2] = test system: MCF7 breast
[3] = test system: PC-3 prostate
[4] = test system: MDA-MB-435
[5] = test system: HS 578T breast
[6] = test system: DU-145 prostate
[7] = test system: KM20L2 colon
[8] = test system: DMS 114 small cell lung
[9] = test system: HOP-18 NSCLC
[10] = test system: SNB-78 CNS

Structure (SMILES)	GI50 [1]	TGI [1]	GI50 [2]	TGI [2]	GI50 [3]	TGI [3]	GI50 [4]	TGI [4]	GI50 [5]	TGI [5]	GI50 [6]	TGI [6]	TGI [7] [µM]	TGI [8] [µM]	TGI [9] [µM]	TGI [10] [µM]
C=CCN1C(=O)/C(=c2\sc3n(c2=O)C2C(NN=3)N(CC)C(=O)N2CC)c2ccccc21 (stereo not given)	1.23 µM	7.96 µM	448 nM	> 100 µM	0.548 µM	> 100 µM	207 nM	0.491 µM	0.447 µM	58.5 µM	0.59 µM	> 37.3 µM				
CSC1=Nc2c(c(C)c(-c3ccccc3)n2COC(CO)CO)C2=NC(=O)C(C)N12 (stereo not given)	> 100 µM	> 100 µM	> 100000 nM	> 100 µM	> 100 µM	> 100 µM	> 100000 nM	> 100 µM	> 100 µM	> 100 µM	> 100 µM	> 100 µM				
O=C(c1cc2ccccc2[nH]1)C(O)(c1cc2ccccc2[nH]1)c1cc2ccccc2[nH]1													> 246	> 246		
N/C(=N\O)c1ncc(-c2ccc(C(F)(F)F)cc2)c(NC2CCCCCC2)n1	3.96 µM	19.3 µM	4650 nM and 1430 nM	12.3 µM	5.34 µM and 1.92 µM	12.1 µM	3760 nM	17 µM	5.67 µM	23.2 µM	6.78 µM and 3.38 µM	16.1 µM				
CCOc1ccc(Cc2nccc3cc(OCC)c(OCC)cc23)cc1OCC	4.02 µM	25.9 µM	9940 nM	23.8 µM	4.41 µM	33.4 µM	5780 nM	23.1 µM	13.2 µM	57.7 µM	12.9 µM	31.8 µM				
NC(=O)c1ccccc1NC(=O)C(=O)C(C(=O)c1ccc2ccccc2c1)C1OC(=O)c2ccccc21 (stereo not given)													81.4		22.7	> 100
CCCNc1nc(N(C)O)nc(N(C)O)n1	5.31 µM	> 100 µM	2440 nM	> 100 µM	6.66 µM	> 100 µM	4950 nM	> 100 µM	6.51 µM	> 100 µM	1.46 µM	> 30.1 µM				
O=C(CCCn1c2c(sc3ncccc32)c(=O)n2nnc(-c3ccccc3)c12)NCCc1cnc[nH]1	17.8 µM	34.6 µM	18000 nM	> 100 µM	10.9 µM	> 100 µM	489 nM	20.5 µM	11.3 µM	31.5 µM	2.77 µM	19.7 µM				
COC(=O)CCC(NC(=S)N/N=C(\C)c1ccccn1)C(=O)OC (stereo not given)													> 100	75.8	> 100	
Cc1cc(C)nc(NS(=O)(=O)c2ccc(Nc3c4ccccc4nc4c(C(=O)NCCN(C)C)ccc(Cl)c34)cc2)n1													12	3.94		35.5
Nc1nnc2nc(CC(=O)/C=C/c3ccccc3)c(=O)[nH]n12													> 100	> 100		> 100
Cc1ccc(-n2c3c(c4c(CN5CCCCC5)c(O)ccc42)CCc2ccccc2C3=O)cc1	30.7 µM	> 100 µM	> 100000 nM	> 100 µM	59.2 µM	> 100 µM	> 100000 nM	> 100 µM	> 100 µM	> 100 µM	> 100 µM	> 100 µM				
CCc1cccc(C(C)CC)c1N=C(NC(=O)c1ccccc1C(=O)NC(=Nc1c(CC)cccc1C(C)CC)SC)SC (stereo not given)													79.6		> 100	> 100
COc1cc2cc3c4c(cc(OC)c(OC)c4c2cc1OC)CCN3C(=O)CCCC(=O)O													> 100	> 100		> 100
O=C1NC(=NCc2cccs2)SC1Cc1ccc2ncccc2c1 (stereo not given)	> 25 µM	> 25 µM	8790 nM	> 25 µM	15.6 µM	> 25 µM	7210 nM	> 25 µM	9.87 µM	> 25 µM	> 25 µM	> 25 µM				
CN(C)CCNC(=O)c1cccc2nc3ccc4ccccc4c3nc12														0.293	0.446	10
COC1=C(OC)C(=O)C(/C=C(\C)C(=O)O)=C(C)C1=O	> 100 µM	> 100 µM	> 100000 nM	> 100 µM	> 100 µM	> 100 µM	> 100000 nM	> 100 µM	> 100 µM	> 100 µM	> 100 µM	> 100 µM				
C=CCC(C(=O)OC)C1(C(=O)OC)c2[nH]c3ccccc3c2CCN1Cc1ccccc1 (stereo not given)													> 100	> 100		
Cc1ccc(SSCCCS(=O)O)cc1													> 100	37.1	> 100	
CC1C2Cc3ccc(O)cc3C1(C)CCN2C (stereo not given)		> 100 µM		> 100 µM		> 100 µM		> 100 µM		> 100 µM		> 100 µM				
Oc1nc(NCCc2ccccc2)sc1/C=C1\C=Nc2ncccc21	3.05 µM and 3.74 µM	9.27 µM and 21.6 µM	2790 nM and 2950 nM	11.3 µM and 11.5 µM	3.27 µM and 3.87 µM	12.2 µM and 19 µM	2410 nM and 2830 nM	8.54 µM and 12.2 µM	2.55 µM and 3.19 µM	7.44 µM and 9.51 µM	2.96 µM and 3.09 µM	12.8 µM and 16.5 µM				
Nc1nc(N)c2cc(CNc3ccc(Cl)c(Cl)c3)ccc2n1	0.803 µM	2.16 µM	775 nM	2.05 µM	0.412 µM	1.89 µM	380 nM	1.78 µM	1.34 µM	3.02 µM	0.68 µM	1.93 µM				
CCCCCCN(CCCCCC)CCCNc1nccc2ccccc12	1.44 µM	2.91 µM	1560 nM	3.46 µM	2 µM	5.54 µM	1570 nM	3.06 µM	2.13 µM	5.66 µM	3.42 µM	11.9 µM				
CCOc1ccccc1NC(=O)C(=O)CC(=O)C1=C(C)Nc2ccccc2S1													> 100			> 100
